Results as given in patent publication US20090233942A1, “Genetic markers associated with response to antidepressants” (priority 2008, published 2009).

Tested on: adult patients diagnosed with MDD
Assay: Eight-week randomized, double-blind, placebo-controlled study: association of sequenced gene markers (Tables 1-17) with vilazodone response as change of MADRS
Format: in vivo, human
Conditions: mean MADRS decrease
Excerpt: There was a wide range of inter-individual variability in response to vilazodone as well as to placebo and the active comparators. This variability may be partially due to genetic differences among the individuals treated. This example illustrates a randomized, double-blind, placebo-controlled, multicenter, eight-week study designed to discover genetic markers of response to vilazodone in adult patients diagnosed with MDD by the DSM-IV-TR criteria. Patients must have met all of the following inclusion criteria to be considered for enrollment in the study: (1) 18-65 years of age; (2) diagnosis of MDD, single episode or recurrent, according to DSM-IV-TR (296.2/296.3) with a current Major Depressive Episode of less than one year's duration with a minimum duration of at least 4 weeks; (3) HAM-D score≧22 on the first 17 items of the 21-item HAM-D at screening and baseline visits; (4) HAM-D item 1 (depressed mood) score≧2 at the screening visit and the baseline visit; (5) provision of written informed consent to participate; and (6) ability to speak, read and understand English and to respond to questions and follow simple instructions.
Following randomization into vilazodone and placebo groups, patients began the forced titration schedule. Patients received 10 mg qd until Visit 3 (approximately Day 7). At Visit 3 patients received 20 mg qd until Visit 4 (approximately Day 14). At Visit 4 patients received the target dose of 40 mg qd (approximately Day 15). A total of 152 patients completed the vilazodone arm, while 154 patients completed the placebo arm.
This example illustrates genotyping of the study group for the ACE, ATP5C3, BCL2L1, CYP2C9, DRD3, FOS, DTNBP1, GABRG3, GRIA4, LAMA4, MAPK1, NPY1R, OPRD1, OPRM1, PER3, PLCB1, and PSMD1 polymorphic sites selected by the inventors herein for analysis. Genomic DNA was isolated from blood obtained from each individual and amplified target regions containing the polymorphic sites in Tables A-21 to A-37 (Appendix A) were sequenced to determine the genotypes at these polymorphic sites. Tailed (Universal M13 Forward and Reverse) PCR primers were designed using the sequence of SEQ ID NO:1 for ACE, SEQ ID NO:2 for ATP5C3, SEQ ID NO:3 for BCL2L1, SEQ ID NO:4 for CYP2C9, SEQ ID NO:5 for DRD3, SEQ ID NO:6 for FOS, SEQ ID NO:7 for DTNBP1, SEQ ID NO:8 for GABRG3, SEQ ID NO:9 for GRIA4, SEQ ID NO:10 for LAMA4, SEQ ID NO:11 for MAPK1, SEQ ID NO:12 for NPY1R, SEQ ID NO:13 for OPRD1, SEQ ID NO:14 for OPRM1, SEQ ID NO:15 for PER3, SEQ ID NO:16 for PLCB1, and SEQ ID NO:17 for PSMD1. Amplified PCR products were sequenced using Applied Biosystems' Big Dye® Terminator v 3.1 cycle sequencing kit according to manufacturer's instructions. The reaction products were then electrophoresed using an Applied Biosystems 3700 or 3730xl DNA analyzer. Polymorphisms were identified using the Polyphred program, and confirmed by visual inspection.
Haplotypes were estimated from the unphased genotypes using a computer-implemented algorithm for assigning haplotypes to unrelated individuals in a population sample, essentially as described in WO 01/80156. In this method, haplotypes are assigned directly from individuals who are homozygous at all sites or heterozygous at no more than one of the variable sites. This list of haplotypes is then used to deconvolute the unphased genotypes in the remaining (multiply heterozygous) individuals.
This example illustrates analysis of the markers in Tables A-1 to A-17 (Appendix A) for association with vilazodone response. A proprietary algorithm was used as a tool for finding associations between markers and outcomes. The clinical outcomes were improvement in disease over eight weeks of treatment with vilazodone as measured by the MADRS scale. A linear model was first fitted on the covariates, which were treatment center, race, ethnicity, and baseline values. […]

[1] = PLCB1 marker 1, carriers vs non-carriers
[2] = PLCB1 marker 2, carriers vs non-carriers
[3] = PLCB1 marker 3, carriers vs non-carriers
[4] = PLCB1 marker 4, carriers vs non-carriers
[5] = PLCB1 marker 5, carriers vs non-carriers
[6] = PLCB1 marker 6, carriers vs non-carriers
[7] = PLCB1 marker 7, carriers vs non-carriers
[8] = PLCB1 marker 8, carriers vs non-carriers
[9] = PLCB1 marker 9, carriers vs non-carriers
[10] = PLCB1 marker 10, carriers vs non-carriers
[11] = PLCB1 marker 11, carriers vs non-carriers
[12] = PLCB1 marker 12, carriers vs non-carriers
[13] = PLCB1 marker 13, carriers vs non-carriers
[14] = PLCB1 marker 17, carriers vs non-carriers
[15] = PLCB1 marker 18, carriers vs non-carriers
[16] = PLCB1 marker 19, carriers vs non-carriers
[17] = PLCB1 marker 20, carriers vs non-carriers
[18] = PLCB1 marker 21, carriers vs non-carriers
[19] = PLCB1 marker 22, carriers vs non-carriers
[20] = PLCB1 marker 23, carriers vs non-carriers
[21] = PLCB1 marker 24, carriers vs non-carriers
[22] = PLCB1 marker 25, carriers vs non-carriers
[23] = PLCB1 marker 26, carriers vs non-carriers
[24] = PLCB1 marker 27, carriers vs non-carriers
[25] = PLCB1 marker 28, carriers vs non-carriers
[26] = PLCB1 marker 29, carriers vs non-carriers
[27] = PLCB1 marker 30, carriers vs non-carriers
[28] = PLCB1 marker 31, carriers vs non-carriers
[29] = PLCB1 marker 32, carriers vs non-carriers
[30] = PLCB1 marker 33, carriers vs non-carriers
[31] = PLCB1 marker 34, carriers vs non-carriers
[32] = PLCB1 marker 35, carriers vs non-carriers
[33] = PLCB1 marker 36, carriers vs non-carriers
[34] = PLCB1 marker 37, carriers vs non-carriers
[35] = PLCB1 marker 38, carriers vs non-carriers
[36] = PLCB1 marker 39, carriers vs non-carriers
[37] = PLCB1 marker 40, carriers vs non-carriers
[38] = PLCB1 marker 41, carriers vs non-carriers
[39] = PLCB1 marker 42, carriers vs non-carriers
[40] = PLCB1 marker 43, carriers vs non-carriers
[41] = PLCB1 marker 44, carriers vs non-carriers
[42] = PLCB1 marker 45, carriers vs non-carriers
[43] = PLCB1 marker 46, carriers vs non-carriers
[44] = PLCB1 marker 47, carriers vs non-carriers
[45] = PLCB1 marker 48, carriers vs non-carriers
[46] = PLCB1 marker 49, carriers vs non-carriers
[47] = PLCB1 marker 50, carriers vs non-carriers
[48] = PLCB1 marker 51, carriers vs non-carriers
[49] = PLCB1 marker 52, carriers vs non-carriers
[50] = PLCB1 marker 53, carriers vs non-carriers

With `Cl.N#Cc1ccc2[nH]cc(CCCCN3CCN(c4ccc5oc(C(N)=O)cc5c4)CC3)c2c1` [Vilazodone, 5-{4-[4-(5-Cyano-3-indolyl)-butyl]-1-piperazinyl}-benzofuran-2-carboxamide hydrochloride] the “Response difference (Cauc. only)” value [1] was −6.1, the “Response difference (all ethnic.)” value [1] was −4.8 and the “Response difference (Cauc. only)” value [2] was −6.2. The “Response difference (all ethnic.)” value [2] was −4.8, the “Response difference (Cauc. only)” value [3] was −6.5 and the “Response difference (all ethnic.)” value [3] was −5.1. For the same molecule, the “Response difference (Cauc. only)” value [4] was −6.6, the “Response difference (all ethnic.)” value [4] was −5.1 and the “Response difference (Cauc. only)” value [5] was −5.9. For the same molecule, the “Response difference (all ethnic.)” value [5] was −4.3, the “Response difference (Cauc. only)” value [6] was −6 and the “Response difference (all ethnic.)” value [6] was −4.3. For the same molecule, the “Response difference (Cauc. only)” value [7] was −5.4, the “Response difference (all ethnic.)” value [7] was −3.9 and the “Response difference (Cauc. only)” value [8] was −6. The “Response difference (all ethnic.)” value [8] was −4.3, the “Response difference (Cauc. only)” value [9] was −6.4 and the “Response difference (all ethnic.)” value [9] was −5.1. The “Response difference (Cauc. only)” value [10] was −5.8, the “Response difference (all ethnic.)” value [10] was −4.6 and the “Response difference (Cauc. only)” value [11] was −6.4. The “Response difference (all ethnic.)” value [11] was −5.2, the “Response difference (Cauc. only)” value [12] was −7 and the “Response difference (all ethnic.)” value [12] was −5.6. For the same molecule, the “Response difference (Cauc. only)” value [13] was −6.2, the “Response difference (all ethnic.)” value [13] was −4.9 and the “Response difference (Cauc. only)” value [14] was −6. The “Response difference (all ethnic.)” value [14] was −4.7, the “Response difference (Cauc. only)” value [15] was −6 and the “Response difference (all ethnic.)” value [15] was −4.7. The “Response difference (Cauc. only)” value [16] was −6.6, the “Response difference (all ethnic.)” value [16] was −4.6 and the “Response difference (Cauc. only)” value [17] was −6.7. For the same molecule, the “Response difference (all ethnic.)” value [17] was −4.7, the “Response difference (Cauc. only)” value [18] was −5.9 and the “Response difference (all ethnic.)” value [18] was −4.2. The “Response difference (Cauc. only)” value [19] was −6.7, the “Response difference (all ethnic.)” value [19] was −4.7 and the “Response difference (Cauc. only)” value [20] was −6.1. For the same molecule, the “Response difference (all ethnic.)” value [20] was −4.8, the “Response difference (Cauc. only)” value [21] was −6.2 and the “Response difference (all ethnic.)” value [21] was −4.8. For the same molecule, the “Response difference (Cauc. only)” value [22] was −6.5, the “Response difference (all ethnic.)” value [22] was −5.1 and the “Response difference (Cauc. only)” value [23] was −6.5. For the same molecule, the “Response difference (all ethnic.)” value [23] was −5.1, the “Response difference (Cauc. only)” value [24] was −6.5 and the “Response difference (all ethnic.)” value [24] was −5.1. For the same molecule, the “Response difference (Cauc. only)” value [25] was −6.5, the “Response difference (all ethnic.)” value [25] was −5.1 and the “Response difference (Cauc. only)” value [26] was −6.5. For the same molecule, the “Response difference (all ethnic.)” value [26] was −5.1, the “Response difference (Cauc. only)” value [27] was −6.5 and the “Response difference (all ethnic.)” value [27] was −5.1. The “Response difference (Cauc. only)” value [28] was −6.5, the “Response difference (all ethnic.)” value [28] was −5.1 and the “Response difference (Cauc. only)” value [29] was −6.5. The “Response difference (all ethnic.)” value [29] was −5.1, the “Response difference (Cauc. only)” value [30] was −6.5 and the “Response difference (all ethnic.)” value [30] was −5.1. For the same molecule, the “Response difference (Cauc. only)” value [31] was −6.5, the “Response difference (all ethnic.)” value [31] was −5.1 and the “Response difference (Cauc. only)” value [32] was −6.5. For the same molecule, the “Response difference (all ethnic.)” value [32] was −5.1, the “Response difference (Cauc. only)” value [33] was −6.5 and the “Response difference (all ethnic.)” value [33] was −5.1. The “Response difference (Cauc. only)” value [34] was −6.5, the “Response difference (all ethnic.)” value [34] was −5.1 and the “Response difference (Cauc. only)” value [35] was −6.5. The “Response difference (all ethnic.)” value [35] was −5.1, the “Response difference (Cauc. only)” value [36] was −6.5 and the “Response difference (all ethnic.)” value [36] was −5.1. The “Response difference (Cauc. only)” value [37] was −6.6, the “Response difference (all ethnic.)” value [37] was −5.1 and the “Response difference (Cauc. only)” value [38] was −6.6. For the same molecule, the “Response difference (all ethnic.)” value [38] was −5.1, the “Response difference (Cauc. only)” value [39] was −6.6 and the “Response difference (all ethnic.)” value [39] was −5.1. For the same molecule, the “Response difference (Cauc. only)” value [40] was −6.6, the “Response difference (all ethnic.)” value [40] was −5.1 and the “Response difference (Cauc. only)” value [41] was −6.6. The “Response difference (all ethnic.)” value [41] was −5.1, the “Response difference (Cauc. only)” value [42] was −6.6 and the “Response difference (all ethnic.)” value [42] was −5.1. The “Response difference (Cauc. only)” value [43] was −6.6, the “Response difference (all ethnic.)” value [43] was −5.1 and the “Response difference (Cauc. only)” value [44] was −6.6. The “Response difference (all ethnic.)” value [44] was −5.1, the “Response difference (Cauc. only)” value [45] was −6.6 and the “Response difference (all ethnic.)” value [45] was −5.1. The “Response difference (Cauc. only)” value [46] was −6.6, the “Response difference (all ethnic.)” value [46] was −5.1 and the “Response difference (Cauc. only)” value [47] was −6.6. For the same molecule, the “Response difference (all ethnic.)” value [47] was −5.1, the “Response difference (Cauc. only)” value [48] was −6.6 and the “Response difference (all ethnic.)” value [48] was −5.1. The “Response difference (Cauc. only)” value [49] was −6.6, the “Response difference (all ethnic.)” value [49] was −5.1 and the “Response difference (Cauc. only)” value [50] was −6.6. For the same molecule, the “Response difference (all ethnic.)” value [50] was −5.1.
